Data on four molecules can be found in patent publication US11434535B2, “Centromere/kinetochore protein genes for cancer diagnosis, prognosis and treatment selection” (The Regents of the University of California, priority 2014, dated 2022).

The test system of assay [1] is gastric cancers. Put plainly: K-M Plotter meta-analysis on chemo-sensitivity, gastric cancer. The assay is classed as in vivo, human. To be noted: gastric cancer patients.
Source text: (§1) To address small sample sizes in individual datasets when predicting drug sensitivity, we performed meta-analysis on chemo-sensitivity for several cancer types using K-M Plotter.
(§2) For meta-analysis using K-M Plotter for prognosis, we chose to use the top CES terile as high CES group, and the rest as low CES group. For meta-analysis on sensitivity to adjuvant therapies using K-M Plotter, we chose to use automatically computed best performing CES threshold for patient stratification in all dataset to increase detection sensitivity, even though tertile or median method gave similar results with statistical significance for many datasets. The K-M Plotter software only incorporates genes with probes present on both U133A+B to ensure comparability between datasets for meta-analysis, thus it excluded 7 CEN/KT genes including CENP-H, -W, -L, -K, -P, SPC24 and NUF2, of which 5 are also CES genes. Therefore, we used the 9 remaining CES genes, e.g., CENP-A, HJURP, MIS18B, CENP-N, CENP-M, CENP-U, ZWINT, NDC80, and SPC25, as a simplified version of the CES when using K-M Plotter.
Assay [2] relates to CCLE (Cancer Cell Line Encyclopedia) cell lines. The assay is described as follows: CCLE cell lines: IC50 of Topo I inhibitors versus CES value. The assay is classed as cell-based. The following applies: CCLE cell lines binned into CES quartiles. The source says: We mined the Cancer Cell Line Encyclopedia (CCLE) data, which contains information on both drug treatment and gene expression (Barretina et al., 2012). CCLE cell lines were binned into quartiles according to their CES values, we compared the top and bottom CES quartiles for the IC50 of the Topo I inhibitors and DNA damaging agents irinotecan and topotecan.
The Statistical Analysis of Microarrays (SAM) Excel add-on package (the website at www-stat.stanford.edu/˜tibs/SAM/) was used to identify differences between normal and tumor tissues in expression levels of CEN/KT genes (FDR≤0.05 and fold changes ≥2). Sample clustering was performed on the CEN/KT gene expression profiles using hierarchical clustering in Cluster 3.0 and Java Treeview 1.1.6r4 to group samples by centroid. For CCLE drug sensitivity, analysis was performed in Excel (Microsoft) and GraphPad. Kaplan-Meier survival curves for the CES system were generated for patients to evaluate differences in disease-free survival (DFS), stratified into groups of high (upper tertile), intermediate (middle tertile) and low (lower tertile) CES to evaluate differences in disease-free survival (DFS). […] Five-year survival was analyzed by chi-square test for significance.

For assay [3], the system named is ER+ breast cancer. The assay is described as follows: K-M Plotter meta-analysis on chemo-sensitivity, ER+ breast cancer relapse-free survival. To be noted: ER+ breast cancer patients under the named therapy.
Source text: as §1, §2
Assay [4] concerns late stage ovarian cancers. The assay is described as follows: K-M Plotter meta-analysis on chemo-sensitivity, ovarian cancer overall survival. It counts as in vivo, human. The following applies: ovarian cancer patients, mostly late stage, under the named adjuvant therapy.
Source text: as §1, §2

The structures appear in SMILES notation. “Also recorded” adds a separate entry of the source.

As to `O=c1[nH]cc(F)c(=O)[nH]1` [5-FU, 5-fluorouracil], in assay [1], the “prediction power of CES for sensitivity” value was “no significant prediction power”.
`CCc1c2c(nc3ccc(OC(=O)N4CCC(N5CCCCC5)CC4)cc13)-c1cc3c(c(=O)n1C2)COC(=O)[C@]3(O)CC` [irinotecan]: in assay [2], the “average IC50, top CES quartile compared to bottom CES quartile” value is listed as “significantly lower IC50s; also recorded: significantly more sensitive”.
Consider `CC/C(=C(\c1ccccc1)c1ccc(OCCN(C)C)cc1)c1ccccc1` [tamoxifen], for which the “HR associated with high CES, relapse-free survival (RFS)” value in assay [3] was determined as 1.80.
Regarding `CC[C@@]1(O)C(=O)OCc2c1cc1n(c2=O)Cc2cc3c(CN(C)C)c(O)ccc3nc2-1` [topotecan], the “average IC50, top CES quartile compared to bottom CES quartile” value in assay [2] is “significantly lower IC50s; also recorded: significantly more sensitive”. In addition, the “HR associated with high CES, overall survival” value in assay [4] is on record as “.63”.
